{
  "source": "patent US7358044B2",
  "about": "“Prophylactic and therapeutic benefits of a new class of immune stimulating peptides” (priority 2003, dated 2008)",
  "key": {"NK cells": {"tested_on": "NK cells", "experiment": "NK cell activity of splenocytes from treated mice, chromium-release assay", "assay_type": "in vivo", "description": "The results are depicted in Table 2."}, "J774A.1 macrophages": {"tested_on": "J774A.1 macrophages", "experiment": "Macrophage activation, NO production (Greiss reagent)", "assay_type": "cell-based", "method": "J774A.1 macrophages (ATCC TIB67, 5×10^4 viable cells/well) were cultured in Dulbecco's Modified Eagle Medium (DMEM, high glucose)+10% FBS+100 U/ml penicillin+100 μg/ml streptomycin for 24 hr prior to treatment addition. NO production was determined colorimetrically using the Greiss reagent 24 hr after experimental treatments. […] Statistical significance was analyzed by comparison of mean values using the Student's t test (unpaired, two-tailed)."}, "clinical mastitis": {"tested_on": "clinical mastitis", "experiment": "Clinical mastitis, ICPF versus Polyflex", "assay_type": "in vivo, bovine", "method": "Nineteen animals were showing signs of clinical mastitis, i.e. abnormal milk appearance, painful teat, etc. These animals were randomly assigned to either a test or a control group. The control group animals (n=10) were treated according to the dairy's normal practice for treatment of clinical cases of mastitis, i.e. intramuscular injection of Polyflex brand (Fort Dodge Animal Health) of ampicillin (5 mg/lb×3 days). […] The SCC's for the treatment and control animals were compared 30 days later. The means of the pre-treatment test and control groups were determined to not be statistically different and neither were the standard deviations of the two groups statistically different. […] Two animals in the test group were refractory to treatment."}, "[1]": {"conditions": "0.25 ml i.p. (5 mg ICPF or 20 μg Poly I:C), spleens harvested the following day, mean n = 3 with standard error"}},
  "note": "Marks after values point to notes of the source that are not given here.",
  "data": [
    {"compound": "Poly I:C", "values": [
      {"measurement": "Percent 51Cr released at E:T ratios 50:1", "setting": "NK cells; [1]", "value": "19.1 ± 1.0^b Percent"},
      {"measurement": "Percent 51Cr released at E:T ratios 100:1", "setting": "NK cells; [1]", "value": "31.5 ± 1.1^b Percent"},
      {"measurement": "Percent 51Cr released at E:T ratios 200:1", "setting": "NK cells; [1]", "value": "35.3 ± 1.6^b Percent"},
      {"measurement": "direct activation of NK cells", "setting": "NK cells; naive mice, E:T ratios of 200:1, 100:1, and 50:1", "value": "induced activation of NK cells"}
    ]},
    {"compound": "ICPF-peptide: Purified peptide from ICPF (RSVSLSYRF)", "values": [
      {"measurement": "induction of NO in combination with LPS", "setting": "J774A.1 macrophages; ICPF 100 μg/ml or ICPF-peptide 10 μg/ml with LPS 0-10 μg/ml in the absence of IFN-γ", "value": "unable to induce NO"},
      {"measurement": "amount of NO induced by the minimal stimulatory dose of LPS + IFN-γ", "setting": "J774A.1 macrophages; ICPF-peptide 0.1-100 μg/ml, LPS 10 ng/ml + IFN-γ 1-5 U/ml", "value": "did not modulate the amount of NO"},
      {"measurement": "dose of LPS required to induce NO", "setting": "J774A.1 macrophages; IFN-γ stimulated macrophages, ICPF 100 μg/ml, ICPF-peptide 10 μg/ml", "value": "Neither ICPF (100 μg/ml) nor ICPF-peptide (10 μg/ml) altered the dose of LPS required to induce NO"},
      {"measurement": "dose of IFN-γ required to induce NO", "setting": "J774A.1 macrophages; LPS-stimulated macrophages, ICPF 100 μg/ml, ICPF-peptide 10 μg/ml", "value": "Neither ICPF (100 μg/ml) nor ICPF-peptide (10 μg/ml) altered the dose of IFN-γ required to induce NO"},
      {"measurement": "induction of NO", "setting": "J774A.1 macrophages; purified peptide 0.1-100 μg/ml, absence or presence of IFN-γ", "value": "failed to induce NO"}
    ]},
    {"compound": "CC1(C)S[C@@H]2[C@H](NC(=O)[C@H](N)c3ccccc3)C(=O)N2[C@H]1C(=O)O", "note": "[Polyflex, ampicillin]", "values": [
      {"measurement": "animals that showed improvement", "setting": "clinical mastitis; 30 days, Polyflex 5 mg/lb x 3 days i.m. (n=10)", "value": "one"},
      {"measurement": "average somatic cell count for the group increased by", "setting": "clinical mastitis; Polyflex 5 mg/lb x 3 days i.m., n=10, test period", "value": 7, "unit": "%"}
    ]}
  ]
}
